Test results: patent US20250101004A1, “NOVEL KALIRIN INHIBITORS FOR REGULATION OF SYNAPTIC PLASTICITY AND NEUROPATHIC PAIN TREATMENT” (Northwestern University, priority 2022, published 2025)
Like-named read-outs stand apart in the source and are kept apart here.

Legend:
[1] = system: HEK293T cells; conditions: 24 hours, Cell-titre Glo
Method: Cell viability was assessed by cell-titre glo assay. […] Indicated values indicate the required concentration to reduce viability by 50%.
Compound was incubated with heterologous cells (HEK293T) for 24 hours, and cell death was measured using the Cell-titre Glo assay.

[2] = molecular target: T1, kalirin (Homo sapiens, UniProt O60229); assay: Miniaturized high-throughput GEF assay with bodipy-GDP loaded RAC1; format: biochemical
T1 construct: intrinsic activity of RAC1 in the absence of kalirin's GEF domain (No GEF)
Method: FIG. 11 illustrates that reaction rates from FIG. 10 were assessed and plotted against concentration.
This was assessed using a miniaturized high-throughput GEF assay, utilizing fluorescently labelled GDP (bodipy-GDP) loaded RAC1.

[3] = molecular target: T2, kalirin GEF domain (Homo sapiens, UniProt O60229); assay: Fluorescence thermal shift (FTS) binding to kalirin GEF domain
[4] = molecular target: T2, kalirin GEF domain; assay: Cellular GEF assay (RAC-Glisa) in cells transfected with kalirin-GEF domain; format: cell-based; set-up: Cells were transfected with the kalirin-GEF domain; expressed in transfected cells; host or cells: HEK293T (inferred from the same paragraph's toxicity test; the sentence on transfection says only 'Cells')
Excerpt: Known compound, NSC23766 (FIGS. 14A and 14C), was run alongside B04 (FIGS. 14B and 14D) to confirm GEF inhibition (IC50 of NSC23766 matches published results).

[5] = system: primary cultured rat neurons; assay: Multi-electrode array (MEA) analysis of electrical activity of primary cultured neurons; format: cell-based
Method: FIG. 16A-16F show multi-electrode array analyses of the electrical activity of primary cultured neurons was assessed in the presence of compound B04, alongside the known RAC1 inhibitor NSC23776. […] Dose response analysis confirmed activity of B04 (123 μM, FIG. 16D and FIG. +16F). However, NSC23766 (FIG. 16C and FIG. 16E) had 10× efficacy (7.4 μM) compared to previous results.
Indicated PP01 analogues were incubated with rat primary cultured cortical neurons at 50 μM to assess the ability to recapitulate PP01s ability to inhibit neuronal activity.
48 well multi-electrode arrays (MEAs) were seeded with 50,000 primary cultured rat neurons and grown to 3WIV. Cells were incubated with NSC23766 or B04 at 50 and 100 μM for 4 hours alongside vehicle control (1% DMSO, FIG. 16A-16B). Neuronal activity was assessed in terms of weighted mean firing rate (number of events per second across active electrodes) and burst frequency (>5 events in 100 ms within a single electrode) and network burst frequency (FIG. 16A-16D).
DRC curve analyses of NS23766 (FIGS. 16C and 16E) and B04 (FIGS. 16D and 16F) was performed to assess compound efficacy. […] This is likely due to reported off-target inhibition of NMDAr (Hou et al 2014).
Plate was treated with vehicle control or B04 for 4 hours. The % change from baseline was recorded. […] Drug resistance from overexpression is a known phenomenon, supporting target engagement (Palmer et al, 2014).

| Structure (SMILES) | cellular toxicity / tolerability [1] | inhibition of kalirin biochemical GEF activity [2] | binding to kalirin by FTS (thermodynamic stability of kalirin GEF domain) [3] | inhibition of kalirin activity (RAC1 activation) [4] | burst frequency ([5]; 4 hours, 50 and 100 μM) | firing rate (weighted mean firing rate) ([5]; 4 hours, 50 and 100 μM) | inhibitory efficacy in neurons compared to published reports and cellular activity ([5]; fold greater) | IC50 ([5]; primary cultured neurons, 4 hours treatment, FIG. 16C-16F, read-out: dose response activity on neuronal electrical activity) | IC50 ([5]; PP01 analogues, FIG. 31A-31C, read-out: IC50, inhibition of neuronal activity) | inhibition of neuronal activity ([5]; rat primary cultured cortical neurons, 50 μM, 4 and 24 hours) |
| --- | --- | --- | --- | --- | --- | --- | --- | --- | --- | --- |
| Cc1cc2cc(Nc3ccnc(Nc4ccc5[nH]c(C)cc5c4)n3)ccc2[nH]1 [AZA1] | Only NSC23766 and B04 were well tolerated | inhibited GEF activity | not bind to kalirin |  |  |  |  |  |  |  |
| O=C1C=CC(=O)N1c1cccc([N+](=O)[O-])c1 [NPPD] | Only NSC23766 and B04 were well tolerated | inhibited GEF activity | not bind to kalirin |  |  |  |  |  |  |  |
| CCN(CC)CCCC(C)Nc1nc(C)cc(Nc2ccc3nc(C)cc(N)c3c2)n1 (stereo not shown) [NSC23766] | well tolerated | inhibited GEF activity | not bind to kalirin | inhibit kalirin activity | reduced | reduced | 10 × | 7.4 µM |  |  |
| CC(C)c1cn2c(NC(=O)Cc3c[nH]c4ccccc34)cccc2n1 [NW12, 2-(1H-indol-3-yl)-N-[2-(propan-2-yl)-1H-imidazo[1,2-a]pyridine-5-yl]acetamide] | suitable for in vitro cellular studies |  |  |  |  |  |  |  | < 5 µM | inhibited activity robustly |
| O=C1C=C2C(=CCOC2O)O1 (stereo not shown) [patulin] |  | inhibited GEF activity | bond to kalirin |  |  |  |  |  |  |  |
